In publication PMC10179937, “Cytotoxic Activity, Topoisomerase I Inhibition and In Silico Studies of New Sesquiterpene-aryl Ester Derivatives of (-) Drimenol” (Molecules, 2023):
Where two headings read alike, the source gives them in different places.

Key:
[1] = test system: caspases 3 and 7 on MCF-7 cells; experiment: Caspase-Glo 3/7 assay; format: cell-based, human; conditions: 50 μM, 24 h
Procedure: To determine the cell death type induced by the most promising aryl-drimane esters, we evaluated their capacity to induce apoptosis through the activation of caspases 3 and 7 on MCF-7 cells. For this purpose, 6a, 6e, 6f, 8c, 8f, and 8g were incubated for 24 h on MCF-7 cells at a concentration of 50 μM, close to the IC50 values for cytotoxicity in most compounds. […] In summary, these drimane derivatives induced apoptosis in the MCF-7 cell line, showing a potential antitumoral effect.
The activity of caspase 3/7 in treated MCF-7 cells was determined using a Caspase-Glo-3/7 Assay kit (Promega, UK—Cat. No G8090). The caspase-Glo 3/7 assay is a homogenous, luminescent assay that measures caspase-3 and -7 activities, both key-players in apoptosis. […] Luminescence was proportional to the amount of caspase present. MCF-7 cells (1 × 10^4 cells per well) were grown in a 96-well white plate and were allowed to adhere overnight. The cells were then treated for 24 h with the synthesized compounds (50 µM), with the inclusion of a blank as a control. After treatment, the Caspase-Glo® 3/7 was prepared according to the manufacturer’s guidelines. Briefly, 100 μL of Caspase-Glo 3/7 reagent was added to 100 μL of culture medium containing the cells previously treated in each well. The content was mixed gently by placing the plate on a shaker for 30 s, and the plate was incubated at room temperature in the dark for 1 h before luminescence was read on a luminometer (Berthold Sirius Single Tube Luminometer, Pforzheim, Germany). Fold change in caspase activity was obtained by first subtracting the luminescence value for the blank well from every other value, and then, expressing the average luminescence of each treatment as a fold change with respect to the average luminescence of the negative control.

[2] = Sulforhodamine B in vitro growth inhibition assay, PC-3; format: cell-based, human; conditions: human; ratio of selectivity versus 5-FU; read-out: more selective than 5-FU in PC-3
Procedure: (§1) For this purpose, a colorimetric sulforhodamine B assay was performed to quantify the cytotoxic effect through their respective IC50 values. Each compound’s serial dilutions (12.5, 25, 50, and 100 µM) were evaluated in triplicate. In our study, the human cancer cell lines used were MCF-7 (breast adenocarcinoma); HT-29 (colorectal adenocarcinoma); PC-3 (prostate adenocarcinoma); and MCF-10 control cells (normal breast epithelium). For comparative purposes, the literature IC50 values of daunorubicin and 5-fluorouracil (5-FU), measured in the same cell lines and under the same experimental conditions, were included. Similarly, drimenol (1) was included for comparative purposes.
(§2) The sulforhodamine B assay was used. Briefly, the cells were set up at 5 × 10^3 cells per well of a 96-well microplate for 18 h. Cells were incubated at 37 °C in a humidified 5% CO2/95% air mixture and treated with the compounds at different concentrations for 72 h. At the end of drug exposure, cells were fixed with 50% trichloroacetic acid at 4 °C. After washing with distilled water, cells were stained with 0.1% sulforhodamine B, dissolved in 1% acetic acid (50 μL/well) for 30 min, and, subsequently, washed with 1% acetic acid to remove the unbound stain. The protein-bound stain was solubilized with 100 μL of 10 mM unbuffered Tris base, and the cell density was determined using a […] (wavelength 540 nm). Results are expressed as IC50 values (μM) ± SD.

[3] = test system: PC-3 (prostate adenocarcinoma); experiment: as above; format: cell-based, human; conditions: for Selectivity Index (SI) MCF-10/PC-3: IC50 in non-cancerogenic cell line / IC50 in cancer cell line
Procedure: as §1, §2

[4] = test system: HT-29 (colorectal adenocarcinoma); experiment: Sulforhodamine B in vitro growth inhibition assay, HT-29; format: cell-based, human; conditions: for Selectivity Index (SI) MCF-10/HT-29: IC50 in non-cancerogenic cell line / IC50 in cancer cell line
Procedure: as §1, §2

[5] = test system: MCF-7 (breast adenocarcinoma); experiment: Sulforhodamine B in vitro growth inhibition assay, MCF-7; format: cell-based, human; conditions: for Selectivity Index (SI) MCF-10/MCF-7: IC50 in non-cancerogenic cell line / IC50 in cancer cell line
Procedure: as §1, §2

[6] = as above; format: cell-based, human; conditions: human; ratio of selectivity versus 5-FU; read-out: more selective than 5-FU in MCF-7
Procedure: as §1, §2

[7] = target: T1, Human recombinant Topoisomerase I (Homo sapiens, UniProt P11387); experiment: Topoisomerase I activity, relaxation of supercoiled DNA (pEGFP-N1); format: biochemical; conditions: 50 μM, agarose gel, result in words
T1 construct: purchased Sigma-Aldrich
T1 sequence (P11387 1-765): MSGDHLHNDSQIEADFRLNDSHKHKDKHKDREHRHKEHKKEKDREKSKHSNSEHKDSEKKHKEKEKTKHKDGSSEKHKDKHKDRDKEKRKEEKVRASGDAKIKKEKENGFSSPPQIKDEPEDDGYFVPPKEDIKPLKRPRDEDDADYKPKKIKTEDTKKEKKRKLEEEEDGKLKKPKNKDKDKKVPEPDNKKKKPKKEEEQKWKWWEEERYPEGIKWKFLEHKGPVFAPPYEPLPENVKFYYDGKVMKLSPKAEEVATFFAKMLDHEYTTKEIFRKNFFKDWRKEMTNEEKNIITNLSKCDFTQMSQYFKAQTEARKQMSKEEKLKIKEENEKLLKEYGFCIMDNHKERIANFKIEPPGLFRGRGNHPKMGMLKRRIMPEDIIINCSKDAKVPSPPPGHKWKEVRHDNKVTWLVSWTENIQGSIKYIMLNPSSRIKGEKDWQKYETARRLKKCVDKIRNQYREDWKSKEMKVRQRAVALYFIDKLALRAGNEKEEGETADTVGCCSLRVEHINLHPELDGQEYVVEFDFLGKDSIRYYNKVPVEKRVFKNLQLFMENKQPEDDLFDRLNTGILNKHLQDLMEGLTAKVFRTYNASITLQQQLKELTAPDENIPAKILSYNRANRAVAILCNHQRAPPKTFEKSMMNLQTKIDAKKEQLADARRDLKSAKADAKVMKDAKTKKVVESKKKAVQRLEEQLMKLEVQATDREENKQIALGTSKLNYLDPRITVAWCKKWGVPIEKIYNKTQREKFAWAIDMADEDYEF
Procedure: In this experiment, daunorubicin was used as control due to this compound being reported early as a TOPI inhibitor [31]. First, the optimal concentration of these compounds for the DNA relaxation assays was established.
Topoisomerase I activity was assayed by the relaxation of supercoiled DNA (pEGFP-N1) as the manufacturer’s instructions indicated. Human recombinant Topoisomerase I and buffer were from (Sigma-Aldrich). An amount of 2 μL of 10× topoisomerase I reaction buffer and 200 ng plasmid DNA and the indicated concentrations of compounds were incubated 30 min at 37 °C in Topo I buffer (500 mM Tris·HCl, pH 7.5, 1 M KCl, 10 mM dithiothreitol, 100 mM EDTA, 50 μg/mL acetylated bovine serum albumin (BSA)) in a total volume of 20 μL. The reaction was stopped by the addition of 5 μL of 5× loading dye (composition). Samples were electrophoresed on an 0.8% agarose gel without ethidium bromide for 2–3 h at 5 to 10 V/cm. The gel was stained with ethidium bromide and photographed with a UV transilluminator.

[8] = test system: MCF-10 control cells (normal breast epithelium); experiment: Sulforhodamine B in vitro growth inhibition assay, MCF-10 control cells; format: cell-based; conditions: Homo sapiens, MCF10, 72 h of treatment, IC50 ± SD, non-tumoral cells
Procedure: as §1, §2

[9] = test system: MCF-10 control cells (normal breast epithelium); conditions: literature value, same experimental conditions; cited from earlier work
[10] = test system: MCF-7 (breast adenocarcinoma); conditions: literature value, same experimental conditions; cited from earlier work
[11] = test system: PC-3 (prostate adenocarcinoma); conditions: literature value, same experimental conditions; cited from earlier work
[12] = test system: HT-29 (colorectal adenocarcinoma); design: method as in PMID 25412045; conditions: literature value, same experimental conditions; cited from earlier work

Row | SMILES | caspases-3/7 activity over the control [1] | selectivity ratio at 72 h [2] | IC50 ([3]; Homo sapiens, sulforhodamine B assay, 72 h of treatment, IC50 ± SD) [µM] | Selectivity Index (SI) MCF-10/PC-3 [3] | IC50 ([4]; Homo sapiens, HT-29, sulforhodamine B assay, 72 h of treatment, IC50 ± SD) [µM] | Selectivity Index (SI) MCF-10/HT-29 [4] | IC50 ([5]; Homo sapiens, MCF7, sulforhodamine B assay, 72 h of treatment, IC50 ± SD) [µM] | Selectivity Index (SI) MCF-10/MCF-7 [5] | selectivity ratio at 72 h [6] | inhibition of TOP1-induced DNA relaxation [7] | IC50 [8] [µM] | IC50 [9] [µM] | IC50 [10] [µM] | IC50 [11] [µM] | IC50 [12] [µM]
1 | CC1=C(C(=O)Oc2cc(C)cc(O)c2)[C@@]2(C)CCCC(C)(C)C2CC1 (stereo partly drawn) [6a, 3-Hydroxy-5-methylphenyl-(8aS)-2,5,5,8a-tetramethyl-3,4,4a,5,6,7,8,8a-octahydronaphthalene-1-carboxylate] | two-fold | 20 | 85.5 ± 7.1 | 0.8 | 56.9 ± 4 | 1.2 | 33.7 ± 1.3 | 2.0 | 100 | more prominent | 67.2 ± 6.3 | – | – | – | –
2 | COc1cccc2c1C(=O)c1c(O)c3c(c(O)c1C2=O)C[C@@](O)(C(C)=O)C[C@@H]3O[C@H]1C[C@H](N)[C@H](O)[C@H](C)O1 [Daunorubicin, reference compound] | – | – | – | 23 | – | 0.6 | – | 28 | – | modified the TOP1-induced DNA relaxation in a minor way than compounds 6a and 8c | – | 9.32 ± 1.01 | 0.33 ± 0.02 | 0.41 ± 0.04 | 15.1 ± 0.5
